According to ChEMBL document CHEMBL1201862, “PubChem BioAssay data set” (2004):
Active and inactive are the calls of the source.

Experiments:
[1] = target: T1, Short transient receptor potential channel 4 (Mus musculus, UniProt Q9QUQ5); assay: mouse TRPC4 channel inhibitors, dose response, cell-based, HEK293 TRPC4/mu-opioid, Fluo-4 calcium (AID 434942); assay type: functional;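 note: potency of inhibitors blocking the TRPC4 calcium response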
T1 sequence (Q9QUQ5 whole entry): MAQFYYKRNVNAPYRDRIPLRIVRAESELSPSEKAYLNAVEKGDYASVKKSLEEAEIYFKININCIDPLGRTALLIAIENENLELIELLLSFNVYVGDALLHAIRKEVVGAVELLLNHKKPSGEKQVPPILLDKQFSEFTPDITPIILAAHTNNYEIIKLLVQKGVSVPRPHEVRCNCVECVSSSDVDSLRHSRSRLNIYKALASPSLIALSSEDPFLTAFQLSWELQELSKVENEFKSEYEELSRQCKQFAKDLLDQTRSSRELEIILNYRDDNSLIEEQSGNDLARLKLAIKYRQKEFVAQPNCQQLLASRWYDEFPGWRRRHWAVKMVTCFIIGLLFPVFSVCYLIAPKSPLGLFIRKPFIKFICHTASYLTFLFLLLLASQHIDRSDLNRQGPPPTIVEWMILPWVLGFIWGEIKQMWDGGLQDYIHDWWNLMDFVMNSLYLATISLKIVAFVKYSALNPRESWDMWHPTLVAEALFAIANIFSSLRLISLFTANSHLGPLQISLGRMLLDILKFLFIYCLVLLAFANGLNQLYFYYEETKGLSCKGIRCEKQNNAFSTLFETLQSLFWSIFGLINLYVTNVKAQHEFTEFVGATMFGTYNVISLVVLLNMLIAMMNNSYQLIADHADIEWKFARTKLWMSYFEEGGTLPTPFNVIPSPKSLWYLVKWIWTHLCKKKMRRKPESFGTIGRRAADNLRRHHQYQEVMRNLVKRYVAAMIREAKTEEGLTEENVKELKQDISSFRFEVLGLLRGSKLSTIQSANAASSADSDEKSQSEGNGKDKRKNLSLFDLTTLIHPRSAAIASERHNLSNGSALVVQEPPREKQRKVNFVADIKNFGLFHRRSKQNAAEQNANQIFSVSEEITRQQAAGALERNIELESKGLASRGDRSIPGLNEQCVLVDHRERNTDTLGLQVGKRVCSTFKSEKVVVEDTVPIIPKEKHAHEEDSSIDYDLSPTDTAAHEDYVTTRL

[2] = target: Arf-GAP with SH3 domain, ANK repeat and PH domain-containing protein 1 (Homo sapiens, UniProt Q9ULH1); assay type: functional;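 note: biochemical fluorescence polarization dose–response screen measuring inhibition of ASAP1; ASAP1 GAP domain stimulating GTP hydrolysis by truncated human ARF1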
Sequence of Arf-GAP with SH3 domain, ANK repeat and PH domain-containing protein 1 (Q9ULH1 whole entry, the tested form may be a part): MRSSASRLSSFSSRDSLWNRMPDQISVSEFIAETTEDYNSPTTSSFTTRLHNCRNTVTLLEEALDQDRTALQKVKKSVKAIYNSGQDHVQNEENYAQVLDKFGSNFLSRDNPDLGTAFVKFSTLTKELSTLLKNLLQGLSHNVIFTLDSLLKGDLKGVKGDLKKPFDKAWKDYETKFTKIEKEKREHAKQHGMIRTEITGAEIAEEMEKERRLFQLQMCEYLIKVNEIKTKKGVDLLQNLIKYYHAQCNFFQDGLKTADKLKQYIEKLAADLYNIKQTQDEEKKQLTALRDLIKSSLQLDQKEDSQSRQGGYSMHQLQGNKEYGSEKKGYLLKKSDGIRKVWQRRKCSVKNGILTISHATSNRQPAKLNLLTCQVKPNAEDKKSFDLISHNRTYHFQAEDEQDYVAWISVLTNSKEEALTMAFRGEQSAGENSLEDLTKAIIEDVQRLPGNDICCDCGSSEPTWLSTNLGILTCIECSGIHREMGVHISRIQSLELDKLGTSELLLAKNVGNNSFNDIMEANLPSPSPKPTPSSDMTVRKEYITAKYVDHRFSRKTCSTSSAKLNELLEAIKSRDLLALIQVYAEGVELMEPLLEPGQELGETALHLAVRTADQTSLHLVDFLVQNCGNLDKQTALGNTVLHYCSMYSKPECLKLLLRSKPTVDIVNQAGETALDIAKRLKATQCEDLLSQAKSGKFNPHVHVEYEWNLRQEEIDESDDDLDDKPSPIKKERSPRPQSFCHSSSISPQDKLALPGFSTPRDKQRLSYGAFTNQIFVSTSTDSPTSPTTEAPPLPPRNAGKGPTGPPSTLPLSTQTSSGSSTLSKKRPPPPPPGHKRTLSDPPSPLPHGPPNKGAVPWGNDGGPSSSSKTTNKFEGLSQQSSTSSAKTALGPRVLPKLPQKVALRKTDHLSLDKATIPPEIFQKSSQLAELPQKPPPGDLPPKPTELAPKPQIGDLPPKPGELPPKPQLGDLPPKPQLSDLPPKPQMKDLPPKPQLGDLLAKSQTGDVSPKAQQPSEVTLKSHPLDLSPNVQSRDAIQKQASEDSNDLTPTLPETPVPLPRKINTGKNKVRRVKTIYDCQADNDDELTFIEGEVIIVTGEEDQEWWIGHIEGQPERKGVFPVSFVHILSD

[3] = target: ADP-ribosylation factor GTPase-activating protein 1 (Rattus norvegicus, UniProt Q62848); assay: Fluorescence polarization-based biochemical high throughput dose response screening assay to identify inhibitors of ADP-ribosylation factor GTPase activating protein 1 (ARFGAP1).; assay type: functional
Sequence of ADP-ribosylation factor GTPase-activating protein 1 (Q62848 whole entry): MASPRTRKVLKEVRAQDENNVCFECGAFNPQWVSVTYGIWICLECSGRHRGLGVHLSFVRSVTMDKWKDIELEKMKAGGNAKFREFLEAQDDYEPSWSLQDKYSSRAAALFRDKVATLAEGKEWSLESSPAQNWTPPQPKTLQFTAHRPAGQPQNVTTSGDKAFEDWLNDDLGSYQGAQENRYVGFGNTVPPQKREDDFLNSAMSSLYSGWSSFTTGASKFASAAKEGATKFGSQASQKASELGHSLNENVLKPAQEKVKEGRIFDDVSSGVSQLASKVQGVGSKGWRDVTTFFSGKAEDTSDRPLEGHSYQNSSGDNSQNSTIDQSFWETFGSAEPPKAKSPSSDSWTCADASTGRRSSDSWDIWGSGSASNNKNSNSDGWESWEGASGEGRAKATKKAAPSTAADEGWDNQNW

Mu-type opioid receptor = Mu-type opioid receptor (Homo sapiens, UniProt P35372); assay type: functional, cell-based;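 note: U2OS cells with beta-arrestin recruitment to OPRM1 by beta-gal complementation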
Sequence of Mu-type opioid receptor (P35372 whole entry): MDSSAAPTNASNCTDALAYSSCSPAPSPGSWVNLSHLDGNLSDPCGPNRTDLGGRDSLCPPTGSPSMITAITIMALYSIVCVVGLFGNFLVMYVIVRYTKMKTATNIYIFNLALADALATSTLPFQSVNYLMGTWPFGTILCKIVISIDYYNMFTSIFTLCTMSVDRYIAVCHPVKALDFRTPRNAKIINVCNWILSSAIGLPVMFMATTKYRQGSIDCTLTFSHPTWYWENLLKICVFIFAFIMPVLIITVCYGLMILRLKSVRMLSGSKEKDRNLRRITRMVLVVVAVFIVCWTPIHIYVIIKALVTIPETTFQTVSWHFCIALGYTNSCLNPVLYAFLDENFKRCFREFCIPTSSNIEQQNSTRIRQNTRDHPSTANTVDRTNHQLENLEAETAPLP

[4] = target: T2, DNA repair protein RAD52 homolog (Homo sapiens, UniProt P43351); assay type: functional, biochemical
T2 sequence (P43351 whole entry): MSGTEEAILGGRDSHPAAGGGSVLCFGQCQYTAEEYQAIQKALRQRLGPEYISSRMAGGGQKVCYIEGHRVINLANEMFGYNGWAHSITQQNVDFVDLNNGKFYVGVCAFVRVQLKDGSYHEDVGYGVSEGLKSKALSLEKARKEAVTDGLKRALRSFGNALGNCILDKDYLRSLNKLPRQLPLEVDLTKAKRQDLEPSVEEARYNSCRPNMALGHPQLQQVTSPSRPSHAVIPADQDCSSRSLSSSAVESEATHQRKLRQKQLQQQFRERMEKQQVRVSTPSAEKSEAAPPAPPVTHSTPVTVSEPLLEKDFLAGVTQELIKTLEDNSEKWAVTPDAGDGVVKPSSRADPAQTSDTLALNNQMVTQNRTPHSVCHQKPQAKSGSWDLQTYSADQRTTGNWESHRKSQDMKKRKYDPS

[5] = target: 5-hydroxytryptamine receptor 2A (Mus musculus, UniProt P35363); assay type: functional, cell-based;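 note: CHO-K1 cells with tagged receptor and beta-arrestin; agonist potency measured as compound-induced activation of the receptor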
[6] = target: T3, Lysine-specific demethylase 4C (Homo sapiens, UniProt Q9H3R0); assay: GASC-1 (JMJD2C) histone demethylase inhibitors, dose response, biochemical, DELFIA europium, cherry-picked samples (AID 488835); assay type: functional
T3 sequence (Q9H3R0 whole entry): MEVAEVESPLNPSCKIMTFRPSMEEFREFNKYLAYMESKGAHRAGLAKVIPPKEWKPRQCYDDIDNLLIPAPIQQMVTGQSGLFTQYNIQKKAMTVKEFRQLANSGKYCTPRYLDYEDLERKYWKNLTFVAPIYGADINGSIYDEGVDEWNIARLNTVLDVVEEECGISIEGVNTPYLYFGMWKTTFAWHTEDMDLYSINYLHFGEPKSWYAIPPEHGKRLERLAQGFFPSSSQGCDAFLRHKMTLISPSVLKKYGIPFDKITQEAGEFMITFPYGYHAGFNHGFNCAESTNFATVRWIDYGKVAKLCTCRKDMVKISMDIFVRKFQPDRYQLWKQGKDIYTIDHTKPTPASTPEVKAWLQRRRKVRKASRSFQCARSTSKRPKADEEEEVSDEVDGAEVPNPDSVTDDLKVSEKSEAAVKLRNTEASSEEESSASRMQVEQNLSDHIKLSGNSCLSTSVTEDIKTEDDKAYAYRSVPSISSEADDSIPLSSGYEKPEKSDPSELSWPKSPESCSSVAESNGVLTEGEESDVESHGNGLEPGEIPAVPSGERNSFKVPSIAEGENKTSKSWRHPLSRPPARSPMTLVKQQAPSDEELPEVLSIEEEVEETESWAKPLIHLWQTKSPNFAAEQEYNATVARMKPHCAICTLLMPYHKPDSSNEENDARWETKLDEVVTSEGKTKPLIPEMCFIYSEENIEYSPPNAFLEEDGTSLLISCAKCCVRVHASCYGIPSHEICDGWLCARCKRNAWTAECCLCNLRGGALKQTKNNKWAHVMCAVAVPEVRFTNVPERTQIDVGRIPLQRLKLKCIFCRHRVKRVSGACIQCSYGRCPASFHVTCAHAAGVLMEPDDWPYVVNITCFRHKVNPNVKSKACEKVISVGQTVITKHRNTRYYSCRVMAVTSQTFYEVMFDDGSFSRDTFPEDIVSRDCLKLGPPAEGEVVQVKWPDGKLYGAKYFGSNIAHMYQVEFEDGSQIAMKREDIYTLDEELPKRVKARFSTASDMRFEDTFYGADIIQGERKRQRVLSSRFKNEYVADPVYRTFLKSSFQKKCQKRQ

Major prion protein = Major prion protein (Homo sapiens, UniProt P04156); assay type: functional, cell-based
cells [7] = assay: cells
Beta-galactosidase = Beta-galactosidase (Escherichia coli, UniProt Q8VNN2); assay: Dose response counterscreen for EBI2 assay utilizing the enzyme, b-galactosidase.; assay type: functional
Sequence of Beta-galactosidase (Q8VNN2 whole entry): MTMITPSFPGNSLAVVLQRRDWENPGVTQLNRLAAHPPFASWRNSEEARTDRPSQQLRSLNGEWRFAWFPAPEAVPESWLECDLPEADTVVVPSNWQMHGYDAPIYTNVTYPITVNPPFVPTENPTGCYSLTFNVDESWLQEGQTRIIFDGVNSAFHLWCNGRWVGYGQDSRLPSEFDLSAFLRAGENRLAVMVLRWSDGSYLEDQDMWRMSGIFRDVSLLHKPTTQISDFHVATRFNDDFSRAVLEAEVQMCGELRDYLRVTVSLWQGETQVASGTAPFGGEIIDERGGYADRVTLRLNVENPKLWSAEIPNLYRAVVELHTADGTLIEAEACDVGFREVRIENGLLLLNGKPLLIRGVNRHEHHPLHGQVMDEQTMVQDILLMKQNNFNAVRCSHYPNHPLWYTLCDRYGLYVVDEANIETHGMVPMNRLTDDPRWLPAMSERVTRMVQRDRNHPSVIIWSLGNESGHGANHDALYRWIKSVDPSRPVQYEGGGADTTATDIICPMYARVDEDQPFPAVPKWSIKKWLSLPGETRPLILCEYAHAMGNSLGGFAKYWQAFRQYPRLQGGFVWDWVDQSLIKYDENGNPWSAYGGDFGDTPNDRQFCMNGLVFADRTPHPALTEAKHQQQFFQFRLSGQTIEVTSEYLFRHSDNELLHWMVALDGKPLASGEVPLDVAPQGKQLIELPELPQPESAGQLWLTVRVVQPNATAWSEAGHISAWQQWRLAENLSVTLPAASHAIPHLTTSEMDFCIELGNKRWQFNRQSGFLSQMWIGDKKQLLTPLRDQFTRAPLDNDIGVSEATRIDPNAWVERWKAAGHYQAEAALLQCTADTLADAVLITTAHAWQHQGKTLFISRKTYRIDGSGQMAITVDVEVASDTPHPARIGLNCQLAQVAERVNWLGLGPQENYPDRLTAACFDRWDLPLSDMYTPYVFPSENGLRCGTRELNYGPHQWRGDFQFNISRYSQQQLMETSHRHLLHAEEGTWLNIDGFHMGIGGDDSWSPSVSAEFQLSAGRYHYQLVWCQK

[8] = HepG2 cell cytotoxicity, dose response, cytotoxicity control, ATP luminescence, cherry-pick, activator set 2 (AID 1053143); assay type: functional, cell-based
[9] = target: T4, NAD-dependent protein deacylase sirtuin-5, mitochondrial (Homo sapiens, UniProt Q9NXA8); assay: SIRT5 desuccinylase inhibitors, dose response, biochemical, fluorescence imaging, cherry-pick, set 5 (AID 720591);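 note: desuccinylation of succinyl peptide AMC substrate read as fluorescence after trypsin release; potency of inhibitors that lower fluorescence and may act on trypsin instead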
T4 sequence (Q9NXA8 whole entry): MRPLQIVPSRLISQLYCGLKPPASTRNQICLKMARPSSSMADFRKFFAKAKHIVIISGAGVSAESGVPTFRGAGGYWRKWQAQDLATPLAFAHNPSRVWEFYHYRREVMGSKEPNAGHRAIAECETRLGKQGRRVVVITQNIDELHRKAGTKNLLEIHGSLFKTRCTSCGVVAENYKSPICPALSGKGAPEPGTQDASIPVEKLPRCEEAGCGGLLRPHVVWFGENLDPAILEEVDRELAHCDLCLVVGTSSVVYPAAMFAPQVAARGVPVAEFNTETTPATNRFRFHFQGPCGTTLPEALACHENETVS

[10] = Vero 76 cell cytotoxicity, dose response, cytotoxicity control, set 3 (AID 602439); assay type: functional; settings: Venezuelan equine encephalitis virus
[11] = A Cell-Based Confirmatory Screen for Compounds that Inhibit VEEV, TC-83 (3).; assay type: functional
[12] = inhibitors of non-replicating M. tuberculosis, dose response, luciferase, dry powder (AID 651619); assay type: functional; settings: Mycobacterium tuberculosis
[13] = inhibitors of non-replicating M. tuberculosis, dose response, luciferase, dry powder (AID 651620); assay type: functional; settings: Mycobacterium tuberculosis
[14] = target: T5, Disintegrin and metalloproteinase domain-containing protein 17 (Homo sapiens, UniProt P78536); assay: exosite inhibitors of ADAM17, dose response, biochemical (AID 743260)
T5 sequence (P78536 whole entry, the tested form may be a part): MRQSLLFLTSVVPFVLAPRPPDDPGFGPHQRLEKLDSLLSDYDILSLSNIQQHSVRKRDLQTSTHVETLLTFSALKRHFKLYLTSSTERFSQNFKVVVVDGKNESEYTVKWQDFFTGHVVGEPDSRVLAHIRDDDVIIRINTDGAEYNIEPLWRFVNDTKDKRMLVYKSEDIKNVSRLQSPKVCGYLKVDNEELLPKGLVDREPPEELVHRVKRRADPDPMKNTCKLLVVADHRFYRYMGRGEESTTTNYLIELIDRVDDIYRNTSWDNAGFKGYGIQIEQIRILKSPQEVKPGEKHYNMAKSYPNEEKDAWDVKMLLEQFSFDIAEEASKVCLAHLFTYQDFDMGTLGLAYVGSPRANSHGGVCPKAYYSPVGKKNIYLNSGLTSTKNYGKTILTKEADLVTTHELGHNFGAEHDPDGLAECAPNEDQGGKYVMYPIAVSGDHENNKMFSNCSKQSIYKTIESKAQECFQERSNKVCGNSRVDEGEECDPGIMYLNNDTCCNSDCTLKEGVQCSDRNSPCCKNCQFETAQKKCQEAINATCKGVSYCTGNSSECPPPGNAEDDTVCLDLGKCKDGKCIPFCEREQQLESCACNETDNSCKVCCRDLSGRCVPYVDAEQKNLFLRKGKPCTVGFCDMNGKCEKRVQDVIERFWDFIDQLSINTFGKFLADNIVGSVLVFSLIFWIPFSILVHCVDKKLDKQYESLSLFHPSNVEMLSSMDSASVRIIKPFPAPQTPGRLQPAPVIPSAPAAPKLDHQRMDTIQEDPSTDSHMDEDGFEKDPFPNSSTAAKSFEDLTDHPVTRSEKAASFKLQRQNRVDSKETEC

[15] = target: T5, Disintegrin and metalloproteinase domain-containing protein 17; assay: ADAM17 protease inhibitors, dose response, counter-screen for ADAM10 exosite inhibitor project, biochemical, quenched FRET substrate (AID 743253)
[16] = ADAM10 inhibitors, peptide cleavage, dose response, biochemical, QFRET (AID 743254);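 note: ADAM10 enzyme with the DM2 quenched FRET peptide as substrate; EDANS fluorescence gain as the protease cuts the substrate; inhibitor potency against ADAM10 proteolytic activity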
[17] = target: T6, Oxysterols receptor LXR-beta (Homo sapiens, UniProt P55055); assay type: functional, cell-based
T6 sequence (P55055 whole entry): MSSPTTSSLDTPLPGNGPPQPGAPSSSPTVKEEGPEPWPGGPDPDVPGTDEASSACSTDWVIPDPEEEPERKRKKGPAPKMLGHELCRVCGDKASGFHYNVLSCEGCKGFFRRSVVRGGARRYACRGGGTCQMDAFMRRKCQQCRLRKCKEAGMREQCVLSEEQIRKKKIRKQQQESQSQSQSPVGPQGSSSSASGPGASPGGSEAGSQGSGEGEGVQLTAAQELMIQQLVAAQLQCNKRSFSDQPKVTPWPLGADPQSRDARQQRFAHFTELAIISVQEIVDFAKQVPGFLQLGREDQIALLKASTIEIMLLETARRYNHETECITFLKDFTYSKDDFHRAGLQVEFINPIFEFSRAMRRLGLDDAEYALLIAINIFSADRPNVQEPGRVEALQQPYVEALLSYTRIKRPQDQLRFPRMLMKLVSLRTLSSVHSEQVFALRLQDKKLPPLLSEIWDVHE

HeLa = assay: HeLa cell cytotoxicity, dose response, cytotoxicity control, ATP luminescence, cherry-pick samples (AID 687004); assay type: functional, cell-based; settings: Homo sapiens
HEK293 = assay: HEK293T cell cytotoxicity, dose response, cytotoxicity control, ATP luminescence, cherry-pick samples (AID 687005); assay type: functional, cell-based; settings: Homo sapiens;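 note: cells exposed to compound for 48 hours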
[18] = HEK293 Cytotoxicity Assay Measured in Cell-Based System Using Plate Reader - 7071-01_Inhibitor_Dose_CherryPick_Activity_Set2.; assay type: functional
[19] = T. cruzi intracellular amastigote growth inhibition, dose response, imaging, CA-I/72 strain, bovine embryo skeletal muscle, dry powder (AID 651885); assay type: functional, cell-based
[20] = T. cruzi growth inhibition in host cells, dose response, cell-based, plate reader, dry powder, set 2 (AID 652275); assay type: functional
[21] = A549 cell cytotoxicity, dose response, cytotoxicity control, plate reader, cherry-pick, antagonist series (AID 743412); assay type: functional, cell-based
[22] = LGR2 antagonists, dose response, cell-based, HEK293, CRE-luciferase reporter, cherry pick (AID 743342); assay type: functional
Protein Wnt-3a = Protein Wnt-3a (Mus musculus, UniProt P27467); assay: SAR analysis of small molecule antagonists of Gli-SUFU in a Wnt3a luminescent reporter assay.; assay type: functional
Sequence of Protein Wnt-3a (P27467 whole entry, the tested form may be a part): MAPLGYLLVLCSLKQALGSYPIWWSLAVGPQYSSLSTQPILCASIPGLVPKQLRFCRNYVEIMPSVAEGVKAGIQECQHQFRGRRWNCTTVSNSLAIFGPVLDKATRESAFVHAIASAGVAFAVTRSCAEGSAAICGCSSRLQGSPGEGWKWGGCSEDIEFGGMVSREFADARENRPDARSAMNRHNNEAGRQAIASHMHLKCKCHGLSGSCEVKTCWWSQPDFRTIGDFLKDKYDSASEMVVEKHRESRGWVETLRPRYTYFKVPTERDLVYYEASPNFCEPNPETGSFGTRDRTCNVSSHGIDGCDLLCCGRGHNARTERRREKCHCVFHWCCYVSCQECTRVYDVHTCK

Fatty acid synthase = Fatty acid synthase (Homo sapiens, UniProt P49327); assay: FAS thioesterase domain inhibitors, SAR follow-up, biochemical, endpoint fluorescence intensity, powder samples (AID 652164); assay type: functional
[23] = target: T4, NAD-dependent protein deacylase sirtuin-5, mitochondrial; assay: SIRT5 deacylase inhibitors, dose response, biochemical, fluorescence imaging, cherry-pick, set 6 (AID 720597)
[24] = HEK293 cell cytotoxicity, dose response, cytotoxicity control, cherry-picks, set 5 (AID 1053117); assay type: functional, cell-based
[25] = inhibitors of fibronectin matrix deposition, dose response, AH1F cells, Alexa488-FN fluorescence, cherry-picks (AID 1035475); assay type: functional, cell-based
[26] = CTGF mRNA reduction under YAP1 overexpression, dose response, mechanism study for YAP1 pathway inhibitor project, DLD1 cells, RT-qPCR, cherry-pick (AID 1053127); assay type: functional, cell-based; settings: DLD-1
[27] = YAP1 pathway inhibition via CTGF transcript levels, dose response, cell-based, DLD1 colon cancer, RT-qPCR, cherry-pick (AID 1053122); assay type: functional; settings: Cancer cell lines
[28] = target: T6, Oxysterols receptor LXR-beta; assay type: functional, cell-based; remark: listed apart in the source
cells [29] = assay: cells; remark: listed apart in the source

## COC(=O)CSc1nnc2n(-c3ccc(OC)cc3)c(=O)c3c4c(sc3n12)CCCCC4
[1]
  EC50: 1.5 µM (active)
[2]
  IC50: 28.2 µM (inactive)
[3]
  IC50: 38.1 µM (inactive)

## NCC(O)c1cc(O)c(O)cc1F (configuration not stated)
Mu-type opioid receptor
  EC50: 92.6 µM (inactive)
[4]
  AC50: 6.44 µM (active)
[5]
  EC50: 0.724 µM (active)
[6]
  AC50: 11.2 µM (active)

## O=C(C1=C(O)C(=O)N(CCN2CCOCC2)C1c1cccc(F)c1)c1cc2ccccc2o1 (configuration not stated)
Major prion protein
  IC50: 6.77 µM (active)
Cells [7]
  IC50: > 138 µM (inactive)

## CS(=O)(=O)N(CC(=O)NCCSc1ccc(Cl)cc1)c1ccc2c(c1)OCO2
Beta-galactosidase
  IC50: > 80 µM (inactive)

## Cc1nc2ccccc2n1CC(O)COc1ccccc1Cl (configuration not stated)
[1]
  EC50: 3.35 µM (active)
[8]
  AC50: > 52 µM (inactive)

## O=C(CCC(=O)OCc1ccc(Br)cc1)Nc1ccccc1
[9]
  AC50: > 30 µM (inactive)

## Cc1cc(Cc2cc(C)cc(C(C)(C)C)c2O)c(O)c(Cc2cc(C)cc(C(C)(C)C)c2O)c1
[10]
  CC50: 43.1 µM (active)
[11]
  IC50: > 25 µM (active)

## CSc1nnc(-c2ccccc2)o1
[12]
  IC90: 125 µM (active)
[13]
  IC90: 125 µM (active)

## COc1cccc(C2C(C#N)=C(N)Oc3c2oc(CO)cc3=O)c1 (configuration not stated)
[14]
  IC50: > 69.5 µM (inactive)

## O=C(Nc1ccc2c(c1)OCCO2)C(c1ccnc2ccccc12)N1CCC(Cc2ccccc2)CC1 (configuration not stated)
[15]
  IC50: > 69.5 µM (inactive)
[16]
  IC50: > 69.5 µM (inactive)

## Nc1c(OS(=O)(=O)c2ccccc2)cccc1OS(=O)(=O)c1ccccc1
[17]
  EC50: > 67.5 µM (inactive)

## O=C(CN1CCOCC1)N1CC[C@@H]2[C@@H](CO)Nc3ccc(-c4ccccc4F)cc3[C@@H]21
HeLa
  AC50: < 0.195 µM (active)

## Cc1ccc(S(=O)(=O)N2CC[C@@H]3[C@H]2c2cc(-c4ccccc4F)ccc2N[C@@H]3CO)cc1
HEK293
  AC50: > 47 µM (inactive)
[18]
  AC50: > 47 µM (inactive)

## CC(C)N1C[C@H](C)[C@@H](CN(C)Cc2ccc(Cl)cc2)Oc2c(NC(=O)c3ccncc3)cccc2C1=O
[19]
  IC50: 0.00107 µM (active)
[20]
  AC50: 0.000541 µM (active)

## C[C@H](CO)N1C[C@H](C)[C@H](CN(C)C(=O)Nc2ccccc2)OCCCC[C@H](C)Oc2ccc(NC(=O)CCC(F)(F)F)cc2C1=O
[21]
  AC50: > 52 µM (inactive)
[22]
  AC50: 13.9 µM (active)

## O=C(Nc1cc(N2CCCC2)ncn1)c1cccc(F)c1
Protein Wnt-3a
  IC50: > 21.8 µM (inactive)

## CC1CCN(S(=O)(=O)c2ccc(-c3csc(NC(=O)C4CC4)n3)cc2)CC1
Fatty acid synthase
  IC50: > 80 µM (inactive)

## CCC(=O)N1CC[C@@H]2[C@@H](CO)Nc3ccc(C#Cc4cccnc4)cc3[C@@H]21
[23]
  AC50: > 30 µM (inactive)

## COc1cccc(-c2ccc3c(c2)[C@@H]2[C@@H](CCN2S(=O)(=O)c2cccc(OC)c2)[C@H](CO)N3)c1
[24]
  AC50: 30.5 µM (active)
[25]
  AC50: 57.8 µM (active)

## O=C(Cc1ccncc1)N1CCCCN2[C@H](CO)[C@H](c3ccc(C#Cc4ccccc4F)cc3)[C@@H]2C1
[26]
  AC50: 7.5 µM (active)
[27]
  AC50: 5.41 µM (active)

## Fc1cccc(F)c1/C=N/Nc1ccccn1
[28]
  EC50: > 67.5 µM (inactive)
Cells [29]
  EC50: > 67.5 µM (inactive)
